Measurements published in patent US20220154153A1, “NEW INHIBITORS OF LRRK2/PP1 INTERACTION” (Université de Paris, priority 2019, published 2022).
“Also recorded” adds a separate entry of the source.

Legend:
MDA-MB231 cells [1] = assay: Detection of apoptosis by Annexin-V-FITC staining in cancer cells; assay type: cell-based, human; details: 25 μM peptide, 24 h of treatment
Method: Detection of Apoptosis by Annexin-V-FITC Staining
Apoptosis was determined using Annexin-V FITC (eBiosciences) as described by the manufacturer. Briefly, cells were washed in 1× binding buffer, centrifuged and resuspended in 100 μl of 1× binding buffer containing Annexin-V FITC and propidium iodide. After incubation for 15 min, cells were analyzed by flow cytometry. Data acquired by FACS Canto were analyzed with Diva 60 software. Each condition was analyzed in triplicate. The effect of peptide treatment was compared to untreated control cells.

LRRK2/PP1 interaction = assay: In vitro competition assay of LRRK2/PP1 interaction (LRRK2 immunoprecipitates from MDA-MB231 lysates, anti-PP1 Western blot); assay type: binding, human; details: 1 mM peptide, 30 min, room temperature; compared with non-competed immunoprecipitates
Method: In Vitro Protein/Protein Interaction Competition
The PP1/LRRK2 interaction was competed using the peptides of the invention. Lysates from MDA-MB231 cells were immunoprecipitated with anti-LRRK2 antibody (overnight, 4° C.) and protein A/G Sepharose was added for 1 h at 4° C. The PP1/LRRK2 interaction was competed with 1 mM of the peptide for 30 min at room temperature. After several washing steps, immunoprecipitates were transferred to nitrocellulose and blotted with anti PP1 antibody (Santa Cruz Biotechnology). As internal control, the blot was also blotted with anti-LRRK2 antibody (Invitrogene).
Immunoprecipitation and Western Blotting
Cells (5×10^6) were lysed for 20 min at 4° C. in lysis buffer (50 mM Tris pH8, 1% NP40, 137 mM NaCl, 1 mM MgCl2, 1 mM CaCl2), 10% glycerol and protease inhibitor mixture). Lysates (500 μg) were immunoprecipitated with the appropriated antibody overnight at 4° C. and protein A/G sepharose was added for 1 h at 4° C. After washing with 1×TBST (20 mM Tris HCl pH7.5, 150 mM NaCl, 0.05% Tween 20) immunoprecipitates were separated by SDS-PAGE, transferred to nitrocellulose, blocked (5% non-fat dry milk in TBST) and incubated with the primary antibody (Santa Cruz Biotehnology). The membrane was washed and incubated with PO-conjugates secondary antibody (Dako). Protein detection was performed using the ECL system.

MDA-MB231 cells [2] = assay: Internalization of FITC-labelled peptides in MDA-MB231 cell line (FACS); assay type: cell-based, human; details: different concentrations, 4 h, compared to peptide 13
Method: Quantification of Cellular Internalization
Human cell line MDA-MB231 was seeded in 24 well plate (1×10^5 cells/well) and treated with different concentrations of FITC-labelled peptides for different periods of time. After treatment, cells were harvested and washed twice with PBS to remove the extracellular unbound peptide and resuspended in 200 μl of PBS. FITC fluorescence intensity of internalized peptides was measured by flow cytometry. Untreated cells were used as control.

PBMC from CLL patients = assay: Internalization of FITC-labelled peptides in PBMC from chronic lymphocytic leukemia (CLL) patients (FACS); assay type: cell-based, human; details: 4 h, 37° C.; for FITC labelled cells detected (FACS): PBMC of CLL, 50 μM FITC labelled peptide
Method: (§1) Isolation and Culture of Primary Cells
(§2) Fresh blood from healthy donors (HD) was obtained from Etablissement Francais du Sang. Chronic lymphocytic leukemia (CLL) patient samples were obtained from the Department of Hematology. Peripheral blood mononuclear cells (PBMC) from HD and CLL patients were prepared by Ficoll gradient centrifugation. Cells were maintained in RPMI 1640 supplemented with 10% of FCS, 1% non-essential amino acids, 1% Hepes, 1% sodium pyruvate and 1% glutamine. All the experimental protocols as well as the human blood samples isolation were approved by the Ethical Committee of the Hospital in accordance with the National Guide of the Ministry of Health.
(§3) In addition to cell lines, the internalization of the new peptides according to the invention was further tested in peripheral blood mononuclear cells (PBMC) from healthy donors and chronic lymphocytic leukemia (CLL) patients. PBMC from both were incubated with 50 μM of both peptides for 4 h at 37° C.

PBMC from healthy donors = assay: Internalization of FITC-labelled peptides in PBMC from healthy donors (FACS); assay type: cell-based, human; details: 4 h, 37° C.; for FITC labelled cells detected (FACS): PBMC of healthy human, 50 μM FITC labelled peptide
Method: as §1, §2, §3

Sequence | Apoptosis induction (Annexin-V) (MDA-MB231 cells [1]) | PP1 detected in LRRK2 immunoprecipitates after competition with peptide (Western blot) (LRRK2/PP1 interaction) | Fluorescence intensity of internalization (FACS) (MDA-MB231 cells [2]) | Fluorescence intensity of internalization compared with peptide 13 (PBMC from CLL patients; CLL patients PBMC, 50 μM) | FITC labelled cells detected (FACS) (PBMC from CLL patients) | FITC labelled cells detected (FACS) (PBMC from healthy donors) | Fluorescence intensity of internalization compared with peptide 13 (PBMC from healthy donors; healthy donors PBMC, 50 μM)
VKKKKIKAEIKI (Synthetic construct vectorization (or carrier) peptide disclosed in WO/2016/156536) [shuttle, optimized cell penetrating peptide used alone as control, reference compound] | do not show apoptosis | PP1 is detected; also recorded: no difference | – | – | – | – | –
VKKKKIKAEIKIGFWSRLINRLLEI (Synthetic construct Seq_29 fused to seq_8) [peptide 14] | strong level of apoptosis | important decrease in PP1 detected | higher | slightly higher fluorescence intensity | majority of FITC labelled cells is detected | majority of FITC labelled cells is detected | slightly higher fluorescence intensity
VKKKKIKAEIKIPMGFWSRLINRLLEISPY (Synthetic construct Seq_29 fused to seq_7) [peptide 13] | strong level of apoptosis | low detected; also recorded: important decrease in PP1 detected | – | – | majority of FITC labelled cells is detected | majority of FITC labelled cells is detected | –
